Laboratory results taken from PubChem BioAssay (NCI).
Several values for one entry are separate records, joined by “and”; a condition that tells them apart may be missing. Identical values can stand only once.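 All cell lines were grown in 96-well plates and treated with compound for 48 hours. GI50: concentration for 50% inhibition of growth. TGI is the concentration that stops growth completely.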

Assays:
Assay in all cases: growth of human tumour cells (NCI), 48 h
786-0 renal = test system: 786-0 renal
ACHN renal = test system: ACHN renal
HCT-116 colon = test system: HCT-116 colon
NCI-H226 lung = test system: NCI-H226 lung
RPMI-8226 leukemia = test system: RPMI-8226 leukemia
SF-295 CNS = test system: SF-295 CNS
SK-MEL-2 melanoma = test system: SK-MEL-2 melanoma
SK-MEL-28 melanoma = test system: SK-MEL-28 melanoma
SK-MEL-5 melanoma = test system: SK-MEL-5 melanoma
SR leukemia = test system: SR leukemia
SW-620 colon = test system: SW-620 colon
U251 CNS = test system: U251 CNS
MDA-MB-231 breast = test system: MDA-MB-231 breast
NCI/ADR-RES ovarian = test system: NCI/ADR-RES ovarian
T-47D breast = test system: T-47D breast
MDA-N = test system: MDA-N

Structure (SMILES)	TGI (786-0 renal) [µM]	TGI (ACHN renal) [µM]	TGI (HCT-116 colon) [µM]	TGI (NCI-H226 lung) [µM]	TGI (RPMI-8226 leukemia) [µM]	TGI (SF-295 CNS) [µM]	TGI (SK-MEL-2 melanoma) [µM]	TGI (SK-MEL-28 melanoma) [µM]	TGI (SK-MEL-5 melanoma) [µM]	TGI (SR leukemia) [µM]	TGI (SW-620 colon) [µM]	TGI (U251 CNS) [µM]	TGI (MDA-MB-231 breast) [µM]	TGI (NCI/ADR-RES ovarian) [µM]	TGI (T-47D breast) [µM]	TGI (MDA-N)	GI50 (MDA-N) [nM]	GI50 (NCI/ADR-RES ovarian) [µM]	GI50 (U251 CNS) [µM]
CCN(CC)C(=O)CCn1ccc(=O)[nH]c1=O	> 100	> 100	> 100	> 100	> 100	> 100	> 100	> 100	> 100	> 100	> 100	> 100							
NC(N)=N/N=C/c1c(-c2ccccc2[N+](=O)[O-])nc2sccn12	35.3	> 100	34.4	39.1	42.8	50	30.4	> 100	30.8	35.1	38	31.2	33.4	> 100	59				
COCCN(C(=O)c1ccccc1)C1CCC2(SCCS2)c2[nH]c3ccccc3c21 (configuration not stated)	> 100	> 100	> 100	> 100	61.8	> 100		> 100	> 100	> 100	> 100	> 100	> 100	> 100					
C=C1CC[C@](C)(O)[C@@]2(C)CC[C@H]3C(=C(C)C)C(=O)C[C@]3(C)C[C@H]12	> 50	> 50	> 50	> 50	> 50	> 50	> 50	> 50	> 50	41.1	> 50	> 50	> 50	> 50	> 50				
COc1cc2nc(-c3cccs3)nc(Nc3cccc([N+](=O)[O-])c3)c2cc1OC	40.9	38.3	32.8	58.7	98.3	42.4	39.8	58	> 100	34.2	50.7	32.4	35.9	46.9	38.6				
COc1cc2c(cc1OS(C)(=O)=O)N=C[C@@H]1CCCN1C2=O	> 100	> 100	> 100	> 100	> 100	> 100	> 100	> 100	> 100	> 100	> 100	> 100	> 100		> 100				
CC(=O)OCC1OC(n2c3c(c(-c4ccc(C)cc4)c(C#N)c2=S)C(=O)CC(C)(C)C3)C(OC(C)=O)C(OC(C)=O)C1OC(C)=O (configuration not stated)	> 100	> 100	> 100	61.8	> 100	89		66.3	> 100	> 100	> 100	> 100	62.1	> 100		41.5 µM			
CC1(C)CNC(=O)C2(CCCO2)CNC(C)(C)CNC(=O)C2(CCCO2)CN1 (configuration not stated)	> 10	> 10	> 10		> 10	> 10		> 10	> 10	> 10	> 10	> 10	> 10	> 10	> 10				
CC(=O)OCC1OC(N2C(=O)[C@@H](Oc3ccccc3)[C@H]2/C=C/c2ccccc2)C(OC(C)=O)C(OC(C)=O)C1OC(C)=O (some centres not stated)	> 100	> 100	> 100	> 100	> 100	> 100	> 100	> 100	> 100	> 100	> 100	> 100							
O=C(Cc1ccccc1)NN1C(=O)C(Cl)C1c1ccc(Cl)cc1 (configuration not stated)	> 100	> 100	> 100	> 100	> 100	> 100	> 100	> 100	> 100	> 100	> 100	> 100							
OCC(O)COCn1cc(Cn2ncc3c(SCc4ccccc4)ncnc32)nn1 (configuration not stated)	> 100	> 100	> 100	> 100	> 100	> 100	> 100	> 100	> 100		> 100	> 100	> 100	> 100	> 100				
C/C=C1/CC(C(=O)OC)N(C(=O)OCc2ccccc2)C1=S (configuration not stated)	> 100	> 100	> 100		> 100	> 100	> 100	> 100	> 100		> 100	> 100	> 100	> 100		> 100 µM			
C=C=C[P+](c1ccccc1)(c1ccccc1)c1ccccc1	17.7	> 100	15.5		6.37		26.5	77.7	23.3	60.8		14.3							
COC(=O)c1c(O)c(C#N)c2[nH]c3ccccc3n2c1=O	> 100	> 100	> 100	> 100	> 100	> 100	> 100		> 100	> 100	> 100	> 100	> 100	> 100		> 100 µM			
COC(=O)c1cc2ccc(O)c(O)c2cn1	19.7	43.6	29.2	36.8	> 100	33.6	34.3	35.6	28.2		32.4	31.2	25.2	46.1		2.89 µM and 3.69 µM	1890	20.4	16.9
Brc1ccc(C2=NCSC(c3ccc(Br)cc3)=N2)cc1	40.4	> 100	59.2	> 100	63.5	> 100	32.5	> 100	64.5	47.4	> 100	53.3	> 100	> 100		54.7 µM			
